Where “and” joins values, the source holds several entries; their conditions need not be identical. Identical values can stand only once.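 A five-concentration, 48-hour dose response in 96-well plates underlies each endpoint, interpolated linearly between surrounding concentrations. The concentration for 50% growth inhibition is given as GI50. TGI: concentration producing complete growth inhibition.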
Columns and labels:
Experiment in all cases: NCI-60 cell line screen, 48 h
PC-3 prostate = test system: PC-3 prostate
BT-549 breast = test system: BT-549 breast
SK-OV-3 ovarian = test system: SK-OV-3 ovarian
SK-MEL-2 melanoma = test system: SK-MEL-2 melanoma
NCI-H23 lung = test system: NCI-H23 lung
SW-620 colon = test system: SW-620 colon
SF-539 CNS = test system: SF-539 CNS
HCC-2998 colon = test system: HCC-2998 colon
ACHN renal = test system: ACHN renal
SR leukemia = test system: SR leukemia

SMILES	TGI (PC-3 prostate) [µM]	TGI (BT-549 breast) [µM]	TGI (SK-OV-3 ovarian)	TGI (SK-MEL-2 melanoma)	TGI (NCI-H23 lung)	TGI (SW-620 colon) [µM]	TGI (SF-539 CNS)	TGI (HCC-2998 colon)	TGI (ACHN renal)	TGI (SR leukemia)	GI50 (PC-3 prostate) [µM]	GI50 (BT-549 breast) [µM]	GI50 (SK-OV-3 ovarian) [µM]	GI50 (SK-MEL-2 melanoma) [µM]	GI50 (NCI-H23 lung) [µM]	GI50 (SW-620 colon) [µM]	GI50 (SF-539 CNS) [µM]	GI50 (HCC-2998 colon) [µM]	GI50 (ACHN renal) [µM]	GI50 (SR leukemia) [µM]
CC(C)(C(=O)NN)c1ccccc1	> 100	> 100	> 100 µM	> 100 µM	> 100 µM	> 100	> 100 µM	> 100 µM	> 100 µM	> 100 µM	–	–	–	–	–	–	–	–	–	–
CCCN1C(=O)/C(=c2\sc3n(c2=O)C2C(NN=3)N(CC)C(=O)N2CC)c2ccccc21 (stereo unspecified)	> 37.2	13.2	14.9 µM	15.4 µM	15.8 µM	> 100	0.802 µM	19.6 µM	17.1 µM	21.9 µM	0.453	1.66	0.737	0.799	0.792	0.409	0.258	1.56	0.625	0.422
C[C@]12CC[C@H]3[C@@H](CCC4=CC(=O)CC[C@@H]43)[C@@H]1CC[C@@H]2OC(=O)N(CCCl)N=O	> 48.1	26	30 µM	28.6 µM	33.7 µM	26.7	10.6 µM	12.4 µM	> 37.7 µM	–	5.02	11.2	2.77	3.07	5.1	1.75	0.0959	2.2	0.359	< 0.0381
CCN=C1C=CC(=C(c2ccc(N(C)C)cc2)c2ccc(N(C)C)cc2)c2ccccc21	1.06	0.489	0.455 µM	0.472 µM	0.211 µM	1.11	0.53 µM	0.696 µM	1.1 µM	0.572 µM	0.0468	0.0868	0.105	0.101	0.03	0.113	0.124	0.137	0.241	0.0846
N=C(N)c1nn(C2OC(CO)C(O)C2O)c2nc[nH]c(=O)c12 (stereo unspecified)	6.74	2.67	2.97 µM	0.663 µM	3.63 µM	3.28	1.75 µM	3.37 µM	1.99 µM	–	0.788	0.33	0.409	0.19	0.727	0.53	0.367	0.849	0.292	0.34
N#CSc1ncnc2nc[nH]c12	> 100	> 100	> 100 µM	> 100 µM	> 100 µM	> 100	> 65.9 µM	> 100 µM	> 100 µM	32.2 µM	28.7	> 28.7	2.42	37.6	9.96	7.85	4.14	3.9	9.1	4.02
CCOC(=O)Cc1c[nH]c(=S)[nH]c1=O	> 100	> 100	> 100 µM	> 100 µM	> 100 µM	> 100	> 100 µM	> 100 µM	> 100 µM	> 100 µM	> 100	> 100	> 100	> 100	> 100	> 100	> 100	> 100	> 100	> 100
CC[C@H](Nc1nc(N)nc(C)c1C#N)c1nc2cccc(CN(C)c3ncc(C(=O)NO)cn3)c2c(=O)n1-c1ccccc1	8.14	12.5	3.22 µM	8.75 µM	5.32 µM	3.43	6.12 µM	2.32 µM	3.79 µM	> 50 µM	1.33	2.26	0.969	1.35	1.14	0.392	0.591	0.806	1.26	0.396
C=C(C)[C@@H]1CC=C(CO)CC1	> 10	> 10	> 10 µM and 2570 µM	> 10 µM and 817 µM	> 10 µM and 1120 µM	1340	> 10 µM and 1120 µM	> 10 µM and 1460 µM	> 10 µM and 657 µM	> 10 µM and 1080 µM	–	–	> 10	> 10	> 10	–	> 10	> 10	> 10	> 10
CCc1ccc(NC(=O)Nc2c[nH]c3ccccc23)cc1	> 63.7	> 23.8	> 73.2 µM	> 52.1 µM	> 54.1 µM	> 55	> 40.6 µM	> 50.8 µM	> 84.3 µM	> 100 µM	5.13	1.68	19.7	35.5	36.3	> 38.3	3.09	18	23.2	2.2
Nc1ncnc2c1ccn2C1OC2COP(=O)(O)OC2C1O (stereo unspecified)	3.07	24	24.5 µM	5.52 µM	9.37 µM	> 44.5	20.2 µM	9.45 µM	14.2 µM	25.6 µM	–	–	–	–	–	–	–	–	–	–
CCN(CC)c1ccc(/C=C/c2cc(C)c3ccccc3n2)cc1	> 100	62.9	17.8 µM	6.78 µM	39.3 µM	9.21	9.61 µM	81.1 µM	> 100 µM	12.1 µM	4.84	10.3	3.41	2.61	3.43	1.87	3.2	4.11	6.12	1.53
CC12CCC=CC1CCC1C2CCC2(C)C(c3ccc(=O)oc3)CCC12O (stereo unspecified)	0.317	0.436	0.641 µM	0.828 µM	0.302 µM	0.33	0.18 µM	3.42 µM	0.128 µM	0.11 µM	0.0534	0.0391	0.218	0.25	0.0492	0.0558	0.0531	0.342	0.0297	0.0311
COc1cccc(C2=C(c3cn(C)c4ccccc34)C(=O)NC2=O)c1	> 25	> 25	> 25 µM	> 25 µM	> 25 µM	> 25	> 25 µM	> 25 µM	> 25 µM	> 25 µM	10.2	11.9	12.7	8.79	13.9	9.13	16.5	> 22.1	7.76	5.91
Cc1cc(N2CCCCC2)nc(N(CCNc2ccnc3cc(Cl)ccc23)Cc2ccco2)n1	3.72	3.5	4.9 µM	4.27 µM	4.97 µM	3.08	4.2 µM	4.48 µM	8.06 µM	4.02 µM	1.69	1.82	2.15	2.06	1.91	1.53	2.05	2.14	2.72	1.77
Fc1ccc(-c2nc3n(c2-c2ccncc2)CCS3)cc1	> 25	> 25	> 25 µM	> 25 µM	> 25 µM	> 25	> 25 µM	> 25 µM	> 25 µM	> 25 µM	> 25	> 25	> 25	> 25	> 25	> 25	> 25	> 25	> 25	> 25
COc1cc2c(cc1OC)-c1ccc3cc4c(cc3c1N(CCN1CCCC1)C2)OCO4	1.85	9.01	5.51 µM	20.1 µM	2.14 µM	2.28	2.75 µM	2.43 µM	2.43 µM	1.23 µM	0.303	1.6	0.526	7.61	0.447	0.472	0.643	1.09	0.514	0.0696
O=c1cc(CNc2cc(F)cc(F)c2)c2ccc(I)cc2[nH]1	> 100	> 100	> 100 µM	> 100 µM	> 100 µM	> 100	> 69.9 µM	> 100 µM	> 100 µM	> 100 µM	0.571	1.02	1.11	1.44	6.36	0.384	0.461	> 64.9	0.75	0.129
O=S(=O)(c1ccc(NC(=S)NCc2cccnc2)cc1)N1CCCCC1	> 100	> 100	> 100 µM	> 100 µM	> 100 µM	> 100	> 100 µM	> 100 µM	> 100 µM	> 100 µM	1.5	> 100	> 100	16.6	28.6	0.579	0.446	> 100	29.3	36.8
COc1cc(Cn2cc3c(c2)-c2oncc2CC3)cc(OC)c1OC	> 100	> 100	> 57.5 µM	79.3 µM	> 69.7 µM	> 100	0.0657 µM	17 µM	> 100 µM	> 100 µM	0.0526	0.111	0.0402	7.2	0.048	0.0327	0.0237	0.0413	0.134	0.0286
CC(C)(O)c1ccc(N2CCN(c3nnc(Cc4ccccc4)c4ccccc34)CC2)nc1	> 56.5	24	61.9 µM	26.2 µM	28.4 µM	38.5	29.2 µM	27.8 µM	47.7 µM	> 100 µM	10.7	6.28	18.7	9.57	5.68	17.1	12.7	14	11.3	18.6
O=C(CCl)c1ccc([N+](=O)[O-])o1	6.34	6.85	30.5 µM	27.4 µM	26 µM	2.54	5.03 µM	11.2 µM	3.26 µM	1.81 µM	2.15	2.24	14.9	6.81	4.94	0.886	2.28	5.36	1.68	0.406
Nc1nc(/C=C\c2ccc([N+](=O)[O-])o2)nc(N2CCN(c3ccccc3)CC2)n1	60.6	> 100	44.7 µM	> 100 µM	–	> 100	34 µM	25.8 µM	21.6 µM	83 µM	7.81	15.7	17.1	9.91	–	4.6	16.7	10.1	4.45	3.59
COc1cc2cc(Oc3ccc(NC(=O)Nc4ccc(Cl)c(C(F)(F)F)c4)cc3)c(C)nc2cc1OCCN1CCCCC1	2.69	3.45	3.93 µM	3.64 µM	3.28 µM	3.48	2.94 µM	3.46 µM	2.92 µM	2.37 µM	1.27	1.79	2.28	1.87	1.69	1.9	1.58	1.85	1.57	0.486
O=C(O)[C@@H]1C2CC([C@@H]1C(=O)O)[C@H](N1C(=O)CCC1=O)[C@@H]2Br (stereo partly specified)	> 100	> 100	> 100 µM	> 100 µM	> 100 µM	> 100	> 100 µM	> 100 µM	> 100 µM	> 100 µM	–	–	–	–	–	–	–	–	–	–
CN(C)CCCNC(=O)c1cc(NC(=O)CCNS(=O)(=O)c2ccc3c(c2)C(=O)c2ccccc2C3=O)cn1C	> 100	> 100	> 100 µM	> 100 µM	> 100 µM	> 100	> 100 µM	> 100 µM	–	> 100 µM	> 100	> 100	> 100	> 100	> 100	> 100	> 100	> 100	–	> 100

Source: PubChem BioAssay (NCI)
